Reference: paper PMC12621189, “Optimization of Selective and CNS Penetrant Alkyne-Based TREK Inhibitors: The Discovery and Characterization of ONO-9517601 (VU6022856) and ONO-7927846 (VU6024391)” (Journal of Medicinal Chemistry, 2025)
“And” between values parts separate entries of the source, which are not always exact repeats. Equal values may be shown once.

Tests used:
[1] = Plasma protein binding, mouse; type: in vitro ADME; details: bound; for fraction unbound at 6 h, 5 µM: mouse, plasma, pH 7.4, mouse plasma, read-out: PPB mouse (converted)
Experimental: Plasma protein binding and Brain homogenate binding: Determination of fraction unbound (f u) in plasma was conducted in vitro via equilibrium dialysis using HTDialysis (HTD) membrane plates. The top half of the plate was filled with 100 uL of Dubelco’s Phosphate Buffered Saline, pH 7.4 (DPBS). Compounds were diluted into plasma from each species (5 µM final concentration), which was aliquoted in triplicate to the ‘bottom half’ of the prepared HTD plate wells. The HTD plate was sealed and incubated for 6 hours at 37 °C. Following incubation, each well (both top and bottom halves) were transferred (20 µL) to the corresponding wells of a 96-shallow-well (V-bottom) plate. The daughter plates were then matrix-matched (DPBS side wells received equal volume of plasma, and plasma side wells received equal volume of DPBS), and extraction solution (120 µL; acetonitrile containing 50 nM carbamazepine as IS) was added to all wells of both daughter plates to precipitate protein and extract test article. The plates were then sealed and centrifuged (3500 rcf) for 10 minutes at ambient temperature. Supernatant (60 µL) from each well of the daughter plates was then transferred to the corresponding wells of new daughter plates (96-shallow-well, V bottom) containing water (Milli-Q, 60 µL/well), and the plates were sealed in preparation for LC-MS/MS analysis (see LC-MS/MS analysis method below).
The unbound fraction (f u) was calculated following the equation below, and mean values for each species were calculated from 3 replicates. […]
Fraction unbound for both plasma and brain samples was determined using Equation 4.
Equation 4 Determination of fraction unbound in plasma. […]

[2] = Brain homogenate binding, mouse; type: in vitro ADME; details: bound
Experimental: concentration), which was aliquoted in triplicate to the ‘bottom half’ of the prepared HTD plate wells. The HTD plate was sealed and incubated for 6 hours at 37 °C. Following incubation, each well (both top and bottom halves) were transferred (20 µL) to the corresponding wells of a 96-shallow-well (V-bottom) plate. The daughter plates were then matrix-matched (DPBS side wells received equal volume of plasma, and plasma side wells received equal volume of DPBS), and extraction solution (120 µL; acetonitrile containing 50 nM carbamazepine as IS) was added to all wells of both daughter plates to precipitate protein and extract test article. […]
The unbound fraction (f u) was calculated following the equation below, and mean values for each species were calculated from 3 replicates.
A similar approach was used to determine the degree of brain homogenate binding, which employed the same methodology and procedure with the following modifications: 1) a final compound concentration of 1 μM was used, 2) naïve rat brains were homogenized in DPBS (1:3 composition of brain: DPBS, w/w) using a Mini-Bead Beater™ machine in order to obtain brain homogenate, which was then treated in the same manner as the plasma samples in the previously described plasma protein binding assay. Fraction unbound for both plasma and brain samples was determined using Equation 4. […]

[3] = Brain exposure at the MED (rat NOR); type: in vivo; details: oral, 10 at 1 mg/kg, 11 at 0.3 mg/kg
[4] = IV/PO pharmacokinetic study, rat (SD); type: in vivo; details: for clearance / Vd / half-life / Cmax: Sprague-Dawley, plasma; for clearance / Vd / half-life: iv 1 mg/kg; for clearance: read-out: CLp; for Vd: read-out: Vss; for half-life: read-out: elimination t1/2 (converted); for Cmax / F (%) po: po 1 mg/kg
MK-801 challenged mouse = test: MK-801 challenge novel object recognition (NOR), mouse; type: in vivo; details: dosed orally, data not shown
Experimental: Brain plasma concentration ratio (Kp) was calculated by dividing brain concentration by plasma concentration for each animal. Unbound brain to unbound plasma concentration ratio (Kp,uu) is calculated using the following formula: Kp,uu = (Brain ng/g x brain fu)/(plasma ng/ml x plasma fu).
In-vitro determination of blood-brain barrier penetration potential
Blood-brain barrier penetration was determined using MDR1-MDCK cell monolayers by Absorption Systems, following their protocol. In short, compounds were incubated at […] final concentration on one side of the cell monolayer for 2 hours. Compounds concentration on either side of the monolayer was determined by LC-MS/MS and apparent permeability and efflux ratio were determined as described in Wang, Q. et al.1
MK-801 induced novel object recognition test […]
Behavioral analysis: An observer blinds to treatment condition and novel object location used the video recordings to score the interaction of the animal with the two objects offline. The duration an animal explored each object was determined as the total time an animal is facing the object with its nose being ≦ 2 cm away from the object and some discernible whisker movement […]
Data Analysis: Statistical analyses can be performed using EXSUS ver 8.1 (CAC Croit Corporation). The vehicle and compound-treated groups were analyzed by one-way ANOVA followed by Dunnett's test. […]

Structure (SMILES) | fraction unbound at 6 h, 5 µM [1] | BHB mouse [2] | Cmax [3] | clearance [4] | Vd [4] | half-life [4] | Cmax [4] | F (%) po [4] | MED in the NOR cognition assay, MK-801 challenged mouse (MK-801 challenged mouse) | PPB mouse ([1]; mouse plasma)
CC(=O)N1CCC(n2ncc(Cl)c2C(=O)Nc2ncc(C#Cc3ccccc3)cc2C)CC1 [Compound 10, 1-(1-Acetylpiperidin-4-yl)-4-chloro-N-(3-methyl-5-(phenylethynyl)pyridin-2-yl)-1H-pyrazole-5-carboxamide] | 0.018 | 99.5% and 99.5, 99.5% | 218 nM | 30 mL/min/kg | 2.2 L/kg | 1 h | 80 ng/mL | 40% | 1 mg/kg | –
CC(=O)N1CC[C@@H](n2ncc(Cl)c2C(=O)Nc2ncc(C#Cc3ccc(F)cc3)cc2C)[C@H](F)C1 [Compound 11, 1-((3R,4R)-1-Acetyl-3-fluoropiperidin-4-yl)-4-chloro-N-(5-((4-fluorophenyl)ethynyl)-3-methylpyridin-2-yl)-1H-pyrazole-5-carboxamide] | – | 99.5% | 58 nM | 6.1 mL/min/kg | 2.7 L/kg | 5.5 h | 162 ng/mL | 57% | 3 mg/kg | –
Cc1cc(C#Cc2ccccc2)cnc1NC(=O)c1c(Cl)cnn1[C@H]1CCOC1 [Compound 15a, (S)-4-Chloro-N-(3-methyl-5-(phenylethynyl)pyridin-2-yl)-1-(tetrahydrofuran-3-yl)-1H-pyrazole-5-carboxamide] | ~0.02 | – | – | – | – | – | – | – | – | 98.0%
